From PubChem BioAssay (NCI)
Values joined by “and” are separate entries in the source; they are usually repeats but may differ in a detail not shown here. Equal entries are not always repeated.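 Protocol summary: plate cells (96-well), add compound at 5 concentrations, incubate 48 h, interpolate endpoints linearly. GI50: concentration for 50% inhibition of growth. TGI is the concentration that stops growth completely.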

What was measured:
Assay in all cases: growth of human tumour cells (NCI), 48 h
DU-145 prostate = tested on: DU-145 prostate
IGROV1 ovarian = tested on: IGROV1 ovarian
M14 melanoma = tested on: M14 melanoma
MDA-MB-231 breast = tested on: MDA-MB-231 breast
SF-268 CNS = tested on: SF-268 CNS
SK-MEL-5 melanoma = tested on: SK-MEL-5 melanoma
SNB-75 CNS = tested on: SNB-75 CNS
SW-620 colon = tested on: SW-620 colon
UACC-257 melanoma = tested on: UACC-257 melanoma
UACC-62 melanoma = tested on: UACC-62 melanoma

Compound	GI50 (DU-145 prostate)	TGI (DU-145 prostate)	GI50 (IGROV1 ovarian)	TGI (IGROV1 ovarian)	GI50 (M14 melanoma)	TGI (M14 melanoma)	GI50 (MDA-MB-231 breast)	TGI (MDA-MB-231 breast)	TGI (SF-268 CNS)	GI50 (SK-MEL-5 melanoma)	TGI (SK-MEL-5 melanoma)	GI50 (SNB-75 CNS)	TGI (SNB-75 CNS)	GI50 (SW-620 colon)	TGI (SW-620 colon)	GI50 (UACC-257 melanoma)	TGI (UACC-257 melanoma)	GI50 (UACC-62 melanoma)	TGI (UACC-62 melanoma)	GI50 (SF-268 CNS)
CC(C)[C@@]12C[C@@H](OC(=O)COC(=O)c3ccccc3)[C@@](C)(O1)[C@@H]1CC[C@@H](C)[C@H]1[C@@H]2OC(=O)/C=C/c1ccccc1	> 100 µM	> 100 µM	> 100 µM	> 100 µM	> 100 µM	> 100 µM	> 100 µM	> 100 µM	> 100 µM	> 100 µM	> 100 µM	> 100 µM	> 100 µM	> 100 µM	> 100 µM	> 100 µM	> 100 µM	> 100 µM	> 100 µM	–
COc1ccc(-c2nc3sccn3c2-c2ccnc(NCCNS(=O)(=O)c3ccc(C(F)(F)F)cc3)n2)cc1	1.53 µM	> 100 µM	3.18 µM	> 100 µM	0.69 µM	3.25 µM	1.22 µM	42.5 µM	50.9 µM	1.24 µM	2.52 µM	1.98 µM	10.7 µM	4.24 µM	38.9 µM	4.41 µM	> 100 µM	0.485 µM	3.4 µM	1.41 µM
COc1ccc(N=Nc2ccc(O)c(=O)cc2)cc1	4.07 µM	> 100 µM	3.86 µM	> 100 µM	2.22 µM	7.42 µM	4.62 µM	> 100 µM	> 100 µM	3.34 µM	16.2 µM	3.43 µM	> 100 µM	4.08 µM	> 100 µM	3.12 µM	> 100 µM	2.11 µM	5.12 µM	3.62 µM
O=C(O)CN1C(=O)OC(c2ccccc2)C1=O (stereo not given)	–	> 100 µM	–	> 100 µM	–	> 100 µM	–	> 100 µM	> 100 µM	–	> 100 µM	–	> 100 µM	–	> 100 µM	–	> 100 µM	–	> 100 µM	–
CCCCCCCCCN=C(N)c1ccc(N2CCN(c3ccc(C(N)=NCCCCCCCCC)cc3)CC2)cc1	2.35 µM	8.06 µM	1.66 µM	> 50 µM	3.09 µM	> 50 µM	1.41 µM	5.59 µM	4.04 µM	–	–	1.1 µM	4.75 µM	1.52 µM	3.55 µM	1.2 µM	3.08 µM	2.45 µM	22.1 µM	1.22 µM
O=C(CCN1CCCCC1)c1csc2ccccc12	–	> 100 µM	–	> 100 µM	–	> 100 µM	–	> 100 µM	> 100 µM	–	> 100 µM	–	> 100 µM	–	> 100 µM	–	> 100 µM	–	> 100 µM	–
COc1cc(-c2oc3c(OC)c(O)c(OC)c(O)c3c(=O)c2OC)cc(OC)c1OC	–	> 100 µM	–	> 100 µM	–	> 100 µM	–	> 100 µM	71.5 µM	–	> 100 µM	–	60.2 µM	–	> 100 µM	–	> 100 µM	–	> 100 µM	–
COC(=O)C1c2cc3c(c(O)c2CCC1(C)O)C(=O)c1c(O)cc2c(c1C3=O)OC1OC2(C)C(O)C(N(C)C)C1O (stereo not given)	–	0.561 µM	–	2.35 µM	–	5.33 µM	–	1.69 µM	11.1 µM	–	1.73 µM	–	1.37 µM	–	1.08 µM	–	0.739 µM	–	1.91 µM	–
CC(=O)OC1C(O)C(C)OC(OC2C(OC(=O)C3CCC4C(C3)OC3(CC(OC(=O)/C=C/c5ccccc5)C(C)CO3)C43CO3)OC(C)C(O)C2OC(C)=O)C1O (stereo not given)	–	0.0714 µM	–	0.0922 µM	–	0.0293 µM	–	0.101 µM	0.0499 µM	–	0.0155 µM	–	0.0317 µM	–	0.184 µM	–	0.0811 µM	–	0.0382 µM	–
COc1cc2c(Nc3ccc(-c4ccc(N)cc4)cc3)ncnc2c(OC)c1OC	18.4 µM	> 100 µM	12.6 µM	> 100 µM	0.542 µM	> 67.1 µM	2.9 µM	> 100 µM	> 100 µM	1.94 µM	5.3 µM	16.6 µM	64.9 µM	0.733 µM	> 100 µM	4.58 µM	> 100 µM	0.522 µM	> 35.1 µM	19.1 µM
CCCCCc1cc(/C=C2/N=C(c3ccc[nH]3)C=C2OC)[nH]c1C	–	1.48 µM	–	0.195 µM	–	< 0.034 µM	–	0.0999 µM	1.13 µM	–	0.0422 µM	–	< 0.0124 µM	–	0.206 µM	–	0.855 µM	–	0.03 µM	–
CCN1C(=O)/C(=c2\sc3n(c2=O)C2C(NN=3)N(CC)C(=O)N2CC)c2ccccc21 (stereo not given)	0.582 µM	29.2 µM	0.574 µM	> 65.5 µM	0.347 µM	21.7 µM	1.44 µM	19.3 µM	> 100 µM	0.463 µM	7.44 µM	0.189 µM	0.856 µM	0.426 µM	> 100 µM	22.4 µM	> 100 µM	0.426 µM	30 µM	2.57 µM
O=C1CCc2cc(Br)ccc2O1	–	> 100 µM	–	> 100 µM	–	> 100 µM	–	–	> 100 µM	–	> 100 µM	–	92.8 µM	–	> 100 µM	–	> 100 µM	–	> 100 µM	–
CCCCCCCCCCCCC(O)C1CCC(C(O)CCCCC(O)CCCCCC2CC(CC(C)=O)C(=O)O2)O1 (stereo not given)	–	–	1.49 µM	3.1 µM and 26.6 µM	1.66 µM	3.33 µM and 22.2 µM	–	7.38 µM	4.45 µM and 17.1 µM	0.112 µM	2.11 µM and 5.09 µM	1.25 µM	5.42 µM and 16.4 µM	3.29 µM	25.4 µM	1.13 µM	5.08 µM and 6.25 µM	1.38 µM	3.66 µM and 16.3 µM	1.37 µM
CCOC(=O)CCc1c(C)c2c(OC)cc(OC)cc2oc1=O	–	–	–	–	–	> 100 µM	–	–	> 100 µM	–	–	–	> 100 µM	–	> 100 µM	–	> 100 µM	–	–	–
CCN(N=O)C1C2(CCCC2)NC(=O)C12CCCC2 (stereo not given)	–	–	–	> 100 µM	–	> 100 µM	–	–	> 100 µM	–	–	–	> 100 µM	–	> 100 µM	–	> 100 µM	–	> 100 µM	–
